In patent US6649797B2, “Compounds and methods of use to treat infectious diseases” (The Picower Institute for Medical Research, priority 1996, dated 2003):

Key:
HIV-1ADA = experiment: Anti-HIV activity in primary human monocytes, day 9 (Table IX, FIG. 12C); assay type: cell-based
Description: Monocytes infected with HIV-1ADA were cultured in the presence of CNI-H0294 and CNI-H3094 in various concentrations. Nine days after infection, RT activity in culture supernatants was quantified. The results are presented as percent of total RT activity in untreated cultures (control). Three independent samples were assayed for each drug concentration, and the standard deviation was less than 15%.
[…] A 50% inhibitory concentration (IC50) was determined at day 9 after infection.

[1] = target: T1, recombinant RT (p51/p66 heterodimer) (Human immunodeficiency virus type 1 group M subtype B, UniProt P04585); experiment: Binding of [14C]-CNI-H0294 to recombinant RT in solution (immunoprecipitation); design: species or system HIV-1; conditions: 0.2 μM RT, 3.3 μM labeled CNI-H0294, increasing unlabeled compound
T1 construct: recombinant MA or RT (a p51/p66 heterodimer)
Description: Twenty nmol of [^14C]-CNI-HO294 were mixed with 0.28 nmol of recombinant MA or RT (a p51/p66 heterodimer) in 40 μl of binding buffer. Samples were incubated for 2 h at 37° C. in the presence or absence of 200 nmol of unlabeled CNI-H0294. MA and RT proteins were immunoprecipitated using protein G agarose and sheep polyclonal anti-MA (αMA) or rabbit anti-RT (αRT) sera, respectively. Pre-immune sera (PI) was used as control. Bound material was eluted from protein G using 0.1 M glycine buffer [pH 2.8] and the radioactivity in the eluate was quantified in a scintillation counter.
Recombinant RT (0.2 μM) was incubated with 3.3 μM of [^14C ]-labeled CNI-H0294 and increasing concentrations of unlabeled (cold) CNI-3094. The amount of [^14C]-CNI-H0294 that bound to RT was measured as in FIG. 11.
0.28 nanomoles of recombinant MA or RT [p66/p51 ] dimer were mixed with 20 nmol of [^14C] CNI-HO294 (specific activity 5×10^4 cpm/nmol) and incubated 2 hr at room temperature in 40 μl of binding buffer (PBS supplemented with 1% BSA, 0.1% Tween 20, 1 μg/ml leupeptin, 1 μg/ml aprotinin, 1 mM PMSF). Sheep anti-MA or rabbit anti-RT sera (both obtained from NIH AIDS Research and Reference Reagent Program) or pre-immune control sera were then added (at 1:100 dilution) and incubation continued for another 1 hr at room temperature. Immune complexes were precipitated with protein G-agarose, washed, and then eluted with 0.1 M glycine, pH 2.8. Radioactivity of the eluate was measured in a scintillation counter.

[2] = system: HIV-1 pre-integration complexes / karyopherin α; experiment: Binding of HIV-1 pre-integration complexes to GST-karyopherin α; assay type: biochemical
Description: Cytoplasmic lysates of H9 cells infected with HIV-1RF (upper panel) or HIV-like pseudovirions (bottom panel) were treated for 2 hours with various concentrations of CNI-H0294, and were then mixed with GST-karyopherin α immobilized on glutathione Sepharose beads. HIV-1 DNA or RNA that co-precipitated with karyopherin α was quantified as in A and B.
Cytoplasmic lysates prepared from H9 cells infected with HIV-1RF were treated with 10 μM CNI-H3094 (lane 1) or with 1 μM CNI-H0294 and 10 μM (lane 5), 5 μM (lane 4), 1 μM (lane 3), or no CNI-H3094 (lane 2). The amount of pre-integration complexes available for interaction with karyopherin α was quantified as in FIG. 10.
H9 cells were infected with equal amounts of wild-type HIV-1NLHX or with mutant HIV-1NLHX that lack Vpr (Vpr^−) or carry a mutation that inactivates the MA NLS (MA NLS^−). Infected cells were washed and incubated for 4 h. An aliquot of each sample was used to quantify the total HIV-1 DNA (FIG. 14A) and the rest was used to prepare cytoplasmic extracts. Extracts were incubated with 1 μM CNI-H0294 (FIG. 14B, lanes 2, 4, 6, 8) or were left untreated (lanes 1, 3, 5, 7). The amount of pre-integration complexes available for binding to karyopherin α was determined as in FIG. 10.
H9 cells were infected with HIV-1 or HIV-like pseudovirions (Haffar, et al., 1990, J. Virol., 64:2653-2659) at a multiplicity adjusted according to p24 content (50 ng p24 per 10^6 cells) The MA NLS^− virus contains substitutions of isoleucine residues for lysines in positions 26 and 27 of MA in an NLHX backbone (Westervelt., et al., 1992, J. Virol. 66:2577-2582), thus inactivating the NLS. The Vpr^− virus has the initiating ATG of the vpr gene changed to GTG, thus abolishing expression of this gene. The ΔMA NLS pseudovirions have leucine substituting for lysine in position 28 of MA. This mutation abrogates nuclear translocation of HIV-1 gag RNA in growth-arrested H9 cells infected with pseudovirions. After a 1 hour absorption, excess viruses or pseudovirions were washed away, and cells were incubated for an additional 2-3 hour period at 37° C. prior to analysis.
Cytoplasmic extracts were prepared by lysing cells in cold extraction buffer (10 mM KCl, 10 mM Tris-HCl [pH 7.6], 0.5 mM MgCl2, 1 μg/ml each of leupeptin and aprotinin, and 1 MM phenylmethylsulfonyl fluoride [PMSF]) by 20-30 strokes of a Dounce homogenizer under the control of phase-contrast microscopy. After removal of nuclei, cytoplasmic extract was cleared by centrifugation at 15,000 g for 10 min.
Cytoplasmic extracts prepared from HIV-1-or pseudovirion-infected H9 cells were adjusted to 0.14 M NaCl, 0.1% Tween 20 and precleared with glutathione-Sepharose beads for 30 min. at room temperature. Karyopherin α was expressed as a fusion protein with glutathione S-transferase (GST) which can bind glutathione beads in solution. GST-karyopherin α immobilized on Sepharose beads was then added (about 50 μg of immobilized karyopherin α per extract from 108 infected cells) and the mixture was incubated at room temperature for another 30 min. Beads were then pelleted by centrifugation and washed 3 times with PBS supplemented with 0.1% Tween 20, 1 μg/ml each of leupeptin and aprotinin, and 1 mM PMSF. HIV-1 DNA was isolated from the beads by SDS-proteinase K treatment with subsequent phenol-chloroform extraction, while pseudovirion gag RNA was isolated by RNazol (Biotecx Laboratories Inc.).

`COC(=O)c1cc(Nc2cc(C)nc(N)n2)cc(C(=O)OC)c1` [CNI-H3094] was tested, and the IC50 (HIV-1ADA; Human immunodeficiency virus 1, Monocyte, 216 h, day 9 after infection, >10 μM = 50% inhibition not achieved at maximal concentration, read-out: IC50) was greater than 10 µM, the “effect on anti-HIV activity of CNI-H0294 in monocyte cultures” value (HIV-1ADA; RT activity nine days after infection (FIG. 12C)) was “eliminated the inhibitory effect of CNI-H0294 on HIV-1 replication” and the “competition with [14C]-labeled CNI-H0294 for binding to RT” value [1] was “inhibits binding of [^14C]-labeled CNI-H0294 to RT in a dose-dependent manner”. For the same compound, the “inhibition of binding of HIV-1 pre-integration complexes to karyopherin α” value ([2]; 10 μM alone (FIG. 12B, lane 1)) was “did not inhibit”, the “effect on CNI-H0294 inhibition of pre-integration complex binding to karyopherin α” value ([2]; 5-fold excess over 1 μM CNI-H0294) was “reduced significantly the inhibitory effect of CNI-H0294” and the “effect on CNI-H0294 inhibition of pre-integration complex binding to karyopherin α” value ([2]; 10-fold excess over 1 μM CNI-H0294) was “completely eliminated the inhibitory effect”.
